# Measured values: US11534457B2, “Use of dextran sulfate” (priority 2017, dated 2022)
# Test system: severe traumatic brain injury (sTBI)
# Experiment: sTBI in rats, brain gene expression arrays and pathway analysis (Example 9)
# Type: in vivo, Male Wistar rats
# Parameters: key to z score, canonical pathway Dendritic Cell Maturation / z score, canonical pathway Adrenomedullin Signaling pathway / z score, canonical pathway Endothelin-1 Signaling / effect on canonical pathway Adrenomedullin Signaling pathway / effect on canonical pathway Endothelin-1 Signaling / effect on canonical pathway Dendritic Cell Maturation / Ingenuity canonical pathway Adrenomedullin signaling pathway, z score / Ingenuity canonical pathway FLT3 Signaling in Hematopoietic Progenitor Cells, z score / Ingenuity canonical pathway Opioid Signaling Pathway, z score / Ingenuity canonical pathway VDR/RXR Activation, z score / Ingenuity canonical pathway Neuropathic Pain Signaling In Dorsal Horn Neurons, z score / Ingenuity canonical pathway STAT3 Pathway, z score / Ingenuity canonical pathway IL-1 Signaling, z score / Ingenuity canonical pathway IL-6 Signaling, z score / Ingenuity canonical pathway NF-κB Signaling, z score / Ingenuity canonical pathway Role of NFAT in Cardiac Hypertrophy, z score / Ingenuity canonical pathway PPARα/RXRα Activation, z score: *: ambiguous effect
# Details: TBI + 5 mg/kg LMW-DS
# Protocol: The experimental protocol used in this study was approved by the Ethical Committee of the Catholic University of Rome, according to international standards and guidelines for animal care. Male Wistar rats of 300-350 g body weight were fed with standard laboratory diet and water ad libitum in a controlled environment. As the anesthetic mixture, the animals received 35 mg/kg b.w. ketamine and 0.25 mg/kg body weight midazolam by i.p. injection. Severe traumatic brain injury (sTBI) was induced by dropping a 450 g weight from 2 m height on to the rat head that had been protected by a metal disk previously fixed on the skull, according to the “weight drop” impact acceleration model (Marmarou et al., A new model of diffuse brain injury in rats. Part I: Pathophysiology and biomechanics. J Neurosurg. 1994; 80: 291-300). […] At the end of each period of treatment, rats were anesthetized again and then immediately sacrificed.
# LMW-DS (Tikomed AB) was provided at a stock concentration of 20 mg/ml and was kept in a temperature-monitored refrigerator at 4° C. LMW-DS aliquots were diluted to the appropriate dosing concentration in sterile saline prior to delivery of a single subcutaneous injection.
# Three doses of LMW-DS were administered subcutaneously 30 minutes post-TBI. The animals were sacrificed at 2 days post-TBI. The animals were divided into the following subgroups:
# Three doses of LMW-DS were administered subcutaneously 30 minutes post-TBI. The animals were sacrificed at 7 days post-TBI. The animals were divided into the following subgroups:
# An in vivo craniectomy was performed on all animals during anesthesia. After carefully removing the rat's skull, the brain was exposed and removed with a surgical spatula and quickly dropped in RNALater and preserved at 4° C. for further processing.
# RNA extraction and array processing was carried out by SourceBioscience. The arrays used were the Agilent Rat expression arrays.
# Statistical analysis was carried out using the Metaboanalyst software package. Gene expression changes of 10% with a p<0.05 were regarded as significant.
# Pathway analysis of the differentially regulated genes was carried out using the Ingenuity pathway analysis package. The analysis was performed with special reference to pathways and molecular processes and diseases associated with neurodegenerative disease, including dementia, Alzheimer's disease, ALS, TBI and stroke, and with scarring and fibrosis, including glaucoma and normal pressure hydrocephalus (NPH) after subarachnoid haemorrhage.
# [1] = 7 days after TBI, relative to control
substance,measurement,setting,value
low molecular weight dextran sulfate [LMW-DS],"Ingenuity canonical pathway PPARα/RXRα Activation, z score",[1],*
same,"Ingenuity canonical pathway Phospholipase C Signaling, z score",[1],1
same,"Ingenuity canonical pathway Production of Nitric Oxide and Reactive Oxygen Species in Macrophages, z score",[1],2.236
same,"Ingenuity canonical pathway Protein Kinase A Signaling, z score",[1],−1.342
same,"Ingenuity canonical pathway Role of NFAT in Cardiac Hypertrophy, z score",[1],*
same,"Ingenuity canonical pathway Role of NFAT in Regulation of the Immune Response, z score",[1],2.53
same,"Ingenuity canonical pathway STAT3 Pathway, z score",[1],*
same,"Ingenuity canonical pathway Signaling by Rho Family GTPases, z score",[1],1
same,"Ingenuity canonical pathway Synaptic Long Term Depression, z score",[1],1
same,"Ingenuity canonical pathway VDR/RXR Activation, z score",[1],*
same,"Ingenuity canonical pathway Wnt/β-catenin Signaling, z score",[1],−1
same,"Ingenuity canonical pathway cAMP-mediated signaling, z score",[1],−2
same,Diseases or functions annotation: Apoptosis,"after 7 days, TBI: Activated",Inhibited
same,Diseases or functions annotation: Apoptosis of tumor cell lines,"after 7 days, TBI: Activated",Inhibited
same,Diseases or functions annotation: Bleeding,"after 7 days, TBI: Activated",Inhibited
same,Diseases or functions annotation: Breast or colorectal cancer,"after 7 days, TBI: Activated",Inhibited
same,Diseases or functions annotation: Breast or ovarian cancer,"after 7 days, TBI: Activated",Inhibited
same,Diseases or functions annotation: Cell death,"after 7 days, TBI: Activated",Activated
same,Diseases or functions annotation: Cell death of epithelial cells,"after 7 days, TBI: Activated",Activated
same,Diseases or functions annotation: Cell death of tumor cell lines,"after 7 days, TBI: Activated",Inhibited
same,Diseases or functions annotation: Development of sensory organ,"after 7 days, TBI: Activated",Activated
same,Diseases or functions annotation: Digestive organ tumor,"after 7 days, TBI: Activated",Inhibited
same,Diseases or functions annotation: Extracranial solid tumor,"after 7 days, TBI: Activated",Activated
same,Diseases or functions annotation: Failure of kidney,"after 7 days, TBI: Activated",Activated
same,Diseases or functions annotation: Formation of eye,"after 7 days, TBI: Activated",Activated
same,Diseases or functions annotation: Gastrointestinal tumor,"after 7 days, TBI: Activated",Inhibited
same,Diseases or functions annotation: Glucose metabolism disorder,"after 7 days, TBI: Activated",Activated
same,Diseases or functions annotation: Hematologic cancer,"after 7 days, TBI: Activated",Inhibited
same,Diseases or functions annotation: Hematologic cancer of cells,"after 7 days, TBI: Activated",Inhibited
same,Diseases or functions annotation: Hematopoietic neoplasm,"after 7 days, TBI: Activated",Inhibited
same,Diseases or functions annotation: Intestinal tumor,"after 7 days, TBI: Activated",Inhibited
same,Diseases or functions annotation: Lymphatic system tumor,"after 7 days, TBI: Activated",Inhibited
same,Diseases or functions annotation: Lymphocytic cancer,"after 7 days, TBI: Activated",Inhibited
same,Diseases or functions annotation: Lymphocytic neoplasm,"after 7 days, TBI: Activated",Inhibited
same,Diseases or functions annotation: Lymphoid cancer,"after 7 days, TBI: Activated",Inhibited
same,Diseases or functions annotation: Lymphoma,"after 7 days, TBI: Activated",Inhibited
same,Diseases or functions annotation: Lymphoproliferative disorder,"after 7 days, TBI: Activated",Inhibited
same,Diseases or functions annotation: Lymphoreticular neoplasm,"after 7 days, TBI: Activated",Inhibited
same,Diseases or functions annotation: Morbidity or mortality,"after 7 days, TBI: Activated",Inhibited
same,Diseases or functions annotation: Necrosis,"after 7 days, TBI: Activated",Activated
same,Diseases or functions annotation: Necrosis of epithelial tissue,"after 7 days, TBI: Activated",Activated
same,Diseases or functions annotation: Neoplasia of leukocytes,"after 7 days, TBI: Activated",Inhibited
same,Diseases or functions annotation: Obesity,"after 7 days, TBI: Activated",Activated
same,Diseases or functions annotation: Organismal death,"after 7 days, TBI: Activated",Inhibited
same,Diseases or functions annotation: Peripheral vascular disease,"after 7 days, TBI: Activated",Activated
same,Diseases or functions annotation: Renal impairment,"after 7 days, TBI: Activated",Activated
same,Diseases or functions annotation: Sensory system development,"after 7 days, TBI: Activated",Inhibited
same,Diseases or functions annotation: Skin lesion,"after 7 days, TBI: Activated",Inhibited
same,Diseases or functions annotation: Skin tumor,"after 7 days, TBI: Activated",Inhibited
same,Diseases or functions annotation: Abdominal adenocarcinoma,"after 7 days, TBI: Inhibited",Activated
same,Diseases or functions annotation: Abdominal cancer,"after 7 days, TBI: Inhibited",Inhibited
same,Diseases or functions annotation: Abdominal carcinoma,"after 7 days, TBI: Inhibited",Inhibited
same,Diseases or functions annotation: Abdominal neoplasm,"after 7 days, TBI: Inhibited",Activated
same,Diseases or functions annotation: Adenocarcinoma,"after 7 days, TBI: Inhibited",Inhibited
same,Diseases or functions annotation: Angiogenesis,"after 7 days, TBI: Inhibited",Activated
same,Diseases or functions annotation: Breast or pancreatic cancer,"after 7 days, TBI: Inhibited",Inhibited
same,Diseases or functions annotation: Cancer,"after 7 days, TBI: Inhibited",Activated
same,Diseases or functions annotation: Cancer of cells,"after 7 days, TBI: Inhibited",Activated
same,Diseases or functions annotation: Cancer of secretory structure,"after 7 days, TBI: Inhibited",Activated
same,Diseases or functions annotation: Carcinoma,"after 7 days, TBI: Inhibited",Inhibited
same,Diseases or functions annotation: Cell cycle progression,"after 7 days, TBI: Inhibited",Activated
same,Diseases or functions annotation: Cell movement,"after 7 days, TBI: Inhibited",Activated
same,Diseases or functions annotation: Cell movement of endothelial cells,"after 7 days, TBI: Inhibited",Activated
same,Diseases or functions annotation: Cell movement of myeloid cells,"after 7 days, TBI: Inhibited",Activated
same,Diseases or functions annotation: Cell movement of tumor cell lines,"after 7 days, TBI: Inhibited",Activated
same,Diseases or functions annotation: Cell survival,"after 7 days, TBI: Inhibited",Activated
same,Diseases or functions annotation: Cell viability,"after 7 days, TBI: Inhibited",Activated
same,Diseases or functions annotation: Cell viability of tumor cell lines,"after 7 days, TBI: Inhibited",Activated
same,Diseases or functions annotation: Cellular homeostasis,"after 7 days, TBI: Inhibited",Activated
same,Diseases or functions annotation: Chemotaxis,"after 7 days, TBI: Inhibited",Activated
same,Diseases or functions annotation: Concentration of lipid,"after 7 days, TBI: Inhibited",Inhibited
same,Diseases or functions annotation: Development of body axis,"after 7 days, TBI: Inhibited",Activated
same,Diseases or functions annotation: Development of body trunk,"after 7 days, TBI: Inhibited",Activated
same,Diseases or functions annotation: Development of connective tissue cells,"after 7 days, TBI: Inhibited",Activated
same,Diseases or functions annotation: Development of epithelial tissue,"after 7 days, TBI: Inhibited",Activated
same,Diseases or functions annotation: Development of genitourinary system,"after 7 days, TBI: Inhibited",Inhibited
same,Diseases or functions annotation: Development of head,"after 7 days, TBI: Inhibited",Activated
same,Diseases or functions annotation: Development of neurons,"after 7 days, TBI: Inhibited",Activated
same,Diseases or functions annotation: Development of vasculature,"after 7 days, TBI: Inhibited",Activated
same,Diseases or functions annotation: Differentiation of bone,"after 7 days, TBI: Inhibited",Activated
same,Diseases or functions annotation: Differentiation of bone cells,"after 7 days, TBI: Inhibited",Activated
same,Diseases or functions annotation: Differentiation of connective tissue cells,"after 7 days, TBI: Inhibited",Activated
same,Diseases or functions annotation: Digestive system cancer,"after 7 days, TBI: Inhibited",Inhibited
same,Diseases or functions annotation: Endocrine gland tumor,"after 7 days, TBI: Inhibited",Inhibited
same,Diseases or functions annotation: Expression of RNA,"after 7 days, TBI: Inhibited",Activated
same,Diseases or functions annotation: Genital tumor,"after 7 days, TBI: Inhibited",Activated
same,Diseases or functions annotation: Genitourinary carcinoma,"after 7 days, TBI: Inhibited",Activated
same,Diseases or functions annotation: Genitourinary tumor,"after 7 days, TBI: Inhibited",Activated
same,Diseases or functions annotation: Growth of connective tissue,"after 7 days, TBI: Inhibited",Inhibited
same,Diseases or functions annotation: Growth of epithelial tissue,"after 7 days, TBI: Inhibited",Inhibited
same,Diseases or functions annotation: Growth of tumor,"after 7 days, TBI: Inhibited",Activated
same,Diseases or functions annotation: Head and neck cancer,"after 7 days, TBI: Inhibited",Inhibited
same,Diseases or functions annotation: Head and neck tumor,"after 7 days, TBI: Inhibited",Inhibited
same,Diseases or functions annotation: Invasion of cells,"after 7 days, TBI: Inhibited",Activated
same,Diseases or functions annotation: Leukocyte migration,"after 7 days, TBI: Inhibited",Activated
same,Diseases or functions annotation: Malignant genitourinary solid tumor,"after 7 days, TBI: Inhibited",Activated
same,Diseases or functions annotation: Malignant solid tumor,"after 7 days, TBI: Inhibited",Activated
same,Diseases or functions annotation: Microtubule dynamics,"after 7 days, TBI: Inhibited",Activated
same,Diseases or functions annotation: Migration of cells,"after 7 days, TBI: Inhibited",Activated
same,Diseases or functions annotation: Migration of endothelial cells,"after 7 days, TBI: Inhibited",Activated
same,Diseases or functions annotation: Neoplasia of cells,"after 7 days, TBI: Inhibited",Activated
same,Diseases or functions annotation: Non-hematological solid tumor,"after 7 days, TBI: Inhibited",Activated
same,Diseases or functions annotation: Non-melanoma solid tumor,"after 7 days, TBI: Inhibited",Activated
same,Diseases or functions annotation: Nonhematologic malignant neoplasm,"after 7 days, TBI: Inhibited",Inhibited
